Here are results for 31 compounds from patent publication US9518000B2, “Bicyclo [2.2.1] acid GPR120 modulators” (BRISTOL-MYERS SQUIBB COMPANY, priority 2013, dated 2016).

human GPR120, sequence (Q5NUL3 whole entry): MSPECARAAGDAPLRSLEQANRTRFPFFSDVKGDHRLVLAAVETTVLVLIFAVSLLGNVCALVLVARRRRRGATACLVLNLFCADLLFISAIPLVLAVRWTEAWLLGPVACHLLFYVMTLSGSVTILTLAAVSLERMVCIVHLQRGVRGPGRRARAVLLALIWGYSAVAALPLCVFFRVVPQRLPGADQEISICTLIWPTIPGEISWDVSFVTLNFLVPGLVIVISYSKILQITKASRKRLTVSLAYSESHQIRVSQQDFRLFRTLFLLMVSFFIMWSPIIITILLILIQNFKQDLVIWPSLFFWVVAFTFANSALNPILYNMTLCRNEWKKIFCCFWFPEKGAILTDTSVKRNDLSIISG

This assay concerns the target human GPR120 (Homo sapiens (Human), UniProt Q5NUL3). Briefly: GPR120 pERK AlphaScreen SureFire Assay (human GPR120 pERK assay). The assay is classed as cell-based. The settings on record: CHOA12 or CHO-K1 cells stably transfected with the short form of human GPR120 receptor; phosphorylated ERK; read-out: EC50 values measured in the human GPR120 pERK assay. The source says:
GPR120 activity was monitored by measuring phosphorylation of ERK (pERK), since G protein receptors are known to activate the ERK signaling cascade either directly and/or through recruitment of arrestin that serves as a scaffold for downstream signaling events.
GPR120 pERK AlphaScreen SureFire Assay
The human and mouse GPR120-mediated intracellular phosphorylated ERK assays were established using CHOA12 cells stably transfected with the short form of human or mouse GPR120 receptor. Cells were cultured in growth medium consisting of F-12 media (Invitrogen Cat. #11765) with 5% Charcoal/Dextran FBS (Invitrogen Cat. #12676-029), 500 μg/mL GENETICIN® (Life Technologies Cat. #10131-027) and 250 μg/mL Zeocin (Invitrogen Cat. #R250-01). Cells were cryo preserved at a concentration of 2×10^7 cells/mL, in 90% Charcoal/Dextran FBS and 10% DMSO, and frozen in liquid nitrogen at a low passage number.
For the pERK assay, 2×10^7 cells/mL cryopreserved human and mouse cells were thawed rapidly in a 37° C. water bath and added to a T-225 flask containing 50 mL growth medium. The flasks were placed in a tissue culture incubator overnight (37° C., 5% CO2). The next day, cells were harvested with trypsin (Gibco Cat. #25300-054), resuspended in serum-containing growth medium and counted using a Cellometer and volume adjusted to a concentration of 0.6×10^6 cells/mL. Cells were plated into 384-well clear bottom tissue culture plates (BD Cat. #353962) at 50 μL/well, for a density of 30,000 cells/well using a MULTIDROP® and incubated for 16-18 hours (overnight) at 37° C. with 5% CO2. The next day, cells were serum starved in 30 μL of F-12 media without any serum or antibiotics for 2 hours at 37° C.
Test compounds were 3-fold, 11-point serially diluted in DMSO in a REMP assay plate (Matrix Cat. #4307) by Tecan and 5 μL was transferred into an ECHO source plate (LabCyte Cat. #LC-0200). Cells were then stimulated with 50 nL of compound dilutions using ECHO liquid handler for 7 minutes at 37° C. Compounds ranged from final assay concentrations of 33.33 μM to 0.56 nM.
The media was then dumped and cells lysed with 20 μL of 1× Lysis buffer from the AlphaScreen SureFire Phospho-ERK 1/2 Kit (Perkin Elmer Cat. #6760617M). The lysis buffer was diluted 5-fold with water before use. The plate was agitated on a shaker for 10 minutes after which 2 μL was transferred into a 384-well white proxiplate (Perkin Elmer Cat. #6008289). The SureFire assay reagent mix was prepared by mixing 60 parts Reaction Buffer, 10 parts Activation Buffer, 1 part Donor Beads, 1 part Acceptor Beads (Perkin Elmer Cat. #TGRES10K). 3.5 μL/well of this reagent mix was manually added to the proxiplate with a multichannel pipettor. Plates were spun down at 1000 rpm for 2 minutes, followed by light-protected incubation at room temperature for 2 hours. The plates were read on the Alpha-technology compatible Envision multilabel plate reader using AlphaScreen protocol according to manufacturer's specifications. The agonist effect of compounds was expressed as 100×(average sample-average blank)/(average total−average blank) where sample is the luminescence activity in the presence of test compound, blank is equal to the luminescence activity in the presence of DMSO control and the total is signal induced by 50 μM linolenic acid as reference compound. Activation data for the test compound over a range of concentrations was plotted as percentage activation of the test compound (100%=maximum response). After correcting for background, EC50 values were determined. The EC50 is defined as the concentration of test compound which produces 50% of the maximal response and was quantified using the 4 parameter logistic equation to fit the data.
The human and mouse GPR120-mediated intracellular phosphorylated ERK assays were also established using CHO-K1 cells stably transfected with the short form of human or mouse GPR120 receptor. […]
For the compound `O=C(O)CCCC12CCC(OCc3cccc(OC(F)(F)F)c3)(CC1)C2` [Example 26, 4-(4-(3-(trifluoro-methoxy)benzyl-oxy)bicyclo[2.2.1]heptan-1-yl) butanoic acid], the EC50 (in general, the midpoint of the concentration-response curve) turned out to be 620 nM.

Take `COc1cc(F)cc(COC23CCC(CCCC(=O)O)(CC2)C3)c1` [Example 27, 4-(4-(3-fluoro-5-methoxybenzyl-oxy)bicyclo [2.2.1]heptan-1-yl)butanoic acid]: the EC50 was found to be 1560 nM.

In the case of `O=C(O)CCCC12CCC(OCc3cc(F)cc(OC(F)(F)F)c3)(CC1)C2` [Example 28, 4-(4-(3-fluoro-5-(trifluorometh-oxy)benzyloxy)bicyclo[2.2.1]heptan-1-yl) butanoic acid], the EC50 was 390 nM.

Consider `COc1ccc(OC(F)(F)F)cc1COC12CCC(CCCC(=O)O)(CC1)C2` [Example 29, 4-(4-(2-methoxy-5-(trifluorometh-oxy)benzyloxy)bicyclo[2.2.1]heptan-1-yl) butanoic acid], for which the EC50 turned out to be 5070 nM. The same measure for `O=C(O)CCCC12CCC(OCc3csc4ccc(Cl)cc34)(CC1)C2` [Example 30, 4-(4-((5-chlorobenzo[b]thiophen-3-yl)methoxy)bicyclo[2.2.1]heptan-1-yl) butanoic acid]: 850 nM; for `COc1cc(Cl)cc(COC23CCC(CCCC(=O)O)(CC2)C3)c1` [Example 31, 4-(4-(3-chloro-5-methoxybenzyl-oxy)bicyclo [2.2.1]heptan-1-yl)butanoic acid]: 900 nM; for `O=C(O)CCCC12CCC(OCc3cccc(Oc4ccc(Cl)cc4)c3)(CC1)C2` [Example 32, 4-(4-(3-(4-chlorophenoxy)benzyloxy)bicyclo [2.2.1]heptan-1-yl) butanoic acid]: 590 nM. With `O=C(O)CCCC12CCC(OCc3cc(OC(F)(F)F)ccc3F)(CC1)C2` [Example 33, 4-(4-(2-fluoro-5-(trifluorometh-oxy)benzyloxy)bicyclo[2.2.1]heptan-1-yl) butanoic acid], the EC50 was 260 nM. With `O=C(O)CCCC12CCC(OCc3cc(F)cc(Oc4ccccc4)c3)(CC1)C2` [Example 34, 4-(4-(3-fluoro-5-phenoxybenzyl-oxy)bicyclo [2.2.1]heptan-1-yl)butanoic acid], the EC50 worked out at 400 nM. With `CC(C)Oc1cc(F)cc(COC23CCC(CCCC(=O)O)(CC2)C3)c1` [Example 35, 4-(4-(3-fluoro-5-isopropoxybenzyl-oxy)bicyclo [2.2.1]heptan-1-yl)butanoic acid], the EC50 was found to be 440 nM.

Take `CC(C)Oc1ccccc1COC12CCC(CCCC(=O)O)(CC1)C2` [Example 36, 4-(4-(2-isopropoxy-benzyloxy)bicyclo [2.2.1]heptan-1-yl)butanoic acid]: the EC50 came out at 1550 nM. In the case of `Cc1nc(-c2cccc(COC34CCC(CCCC(=O)O)(CC3)C4)c2)no1` [Example 37, 4-(4-(3-(5-methyl-1,2,4-oxadiazol-3-yl)benzyloxy)bicyclo[2.2.1]heptan-1-yl) butanoic acid], the EC50 worked out at 3120 nM.

For the compound `CC(C)Oc1cccc(COC23CCC(CCCC(=O)O)(CC2)C3)c1` [Example 38, 4-(4-(3-isopropoxy-benzyloxy)bicyclo [2.2.1]heptan-1-yl)butanoic acid], the EC50 was 1680 nM. The same measure for `O=C(O)CCCC12CCC(OCc3cccc(C(=O)c4ccccc4)c3)(CC1)C2` [Example 39, 4-(4-(3-benzoyl-benzyloxy)bicyclo[2.2.1]heptan-1-yl) butanoic acid]: 820 nM; for `COc1cc(Cl)ccc1COC12CCC(CCCC(=O)O)(CC1)C2` [Example 40, 4-(4-(4-chloro-2-methoxybenzyl-oxy)bicyclo [2.2.1]heptan-1-yl)butanoic acid]: 2300 nM. Regarding `O=C(O)CCCC12CCC(OCc3ccc(Cl)cc3Cl)(CC1)C2` [Example 41, 4-(4-(2,4-dichlorobenzyloxy)bicyclo[2.2.1]heptan-1-yl) butanoic acid], the EC50 turned out to be 1100 nM. The same measure for `COc1ccc(COC23CCC(CCCC(=O)O)(CC2)C3)c(F)c1` [Example 42, 4-(4-(2-fluoro-4-methoxybenzyl-oxy)bicyclo[2.2.1]heptan-1-yl) butanoic acid]: 9100 nM.

`COc1ccc(COC23CCC(CCCC(=O)O)(CC2)C3)c(OC(F)(F)F)c1` [Example 43, 4-(4-(4-methoxy-2-(trifluoromethoxy)benzyloxy)bicyclo[2.2.1]heptan-1-yl) butanoic acid]: the EC50 was determined as 320 nM. As for `O=C(O)CCCC12CCC(OCc3cc(F)ccc3OC(F)(F)F)(CC1)C2` [Example 44, 4-(4-(5-fluoro-2-(trifluorometh-oxy)benzyloxy)bicyclo[2.2.1]heptan-1-yl) butanoic acid], the EC50 stood at 930 nM. Turning to `O=C(O)CCCC12CCC(OCc3cccc(Cl)c3F)(CC1)C2` [Example 45, 4-(4-(3-chloro-2-fluorobenzyl-oxy)bicyclo [2.2.1]heptan-1-yl)butanoic acid], the EC50 was determined as 710 nM. Turning to `O=C(O)CCCC12CCC(OCc3cccc(C(F)(F)F)c3F)(CC1)C2` [Example 46, 4-(4-(2-fluoro-3-(trifluoromethyl)benzyloxy)bicyclo[2.2.1]heptan-1-yl) butanoic acid], the EC50 was found to be 290 nM. As to `O=C(O)CCCC12CCC(OCc3c(F)ccc(F)c3F)(CC1)C2` [Example 47, 4-(4-(2,3,6-trifluorobenzyl-oxy)bicyclo [2.2.1]heptan-1-yl)butanoic acid], the EC50 is 7810 nM. Regarding `O=C(O)CCCC12CCC(OCc3ccccc3-c3ccccc3)(CC1)C2` [Example 48, 4-(4-(biphenyl-2-ylmethoxy)bicyclo[2.2.1]heptan-1-yl) butanoic acid], the EC50 stood at 320 nM.

With `O=C(O)CCCC12CCC(OCc3ccccc3SC(F)(F)F)(CC1)C2` [Example 49, 4-(4-(2-(trifluoro-methylthio)benzyloxy)bicyclo [2.2.1]heptan-1-yl)butanoic acid], the EC50 was 660 nM. With `O=C(O)CCCC12CCC(OCc3cccc(SC(F)(F)F)c3)(CC1)C2` [Example 50, 4-(4-(3-(trifluoro-methylthio)benzyloxy)bicyclo[2.2.1]heptan-1-yl) butanoic acid], the EC50 turned out to be 540 nM. For `O=C(O)CCCC12CCC(OCc3cc([N+](=O)[O-])ccc3Cl)(CC1)C2` [Example 51, 4-(4-(2-chloro-5-nitrobenzyloxy)bicyclo[2.2.1]heptan-1-yl) butanoic acid], the EC50 turned out to be 2390 nM. The same measure for `O=C(O)CCCC12CCC(OCc3cc(Cl)ccc3F)(CC1)C2` [Example 52, 4-(4-(5-chloro-2-fluorobenzyl-oxy)bicyclo [2.2.1]heptan-1-yl)butanoic acid]: 690 nM. On to `O=C(O)CCCC12CCC(OCc3cccc(F)c3F)(CC1)C2` [Example 53, 4-(4-(2,3-difluorobenzyloxy)bicyclo[2.2.1]heptan-1-yl) butanoic acid], for which the EC50 is 6120 nM. The same measure for `O=C(O)CCCC12CCC(OCc3ccsc3Br)(CC1)C2` [Example 54, 4-(4-((2-bromo-thiophen-3-yl)methoxy)bicyclo [2.2.1]heptan-1-yl)butanoic acid]: 1690 nM; for `O=C(O)CCCC12CCC(OCc3cccc(C(F)(F)F)c3Cl)(CC1)C2` [Example 55, 4-(4-(2-chloro-3-(trifluoromethyl)benzyloxy) [2.2.1]heptan-1-yl)butanoic acid]: 170 nM. For the compound `O=C(O)CCCC12CCC(OCc3c(F)ccc(F)c3Cl)(CC1)C2` [Example 56, 4-(4-(2-chloro-3,6-difluorobenzyl-oxy)bicyclo [2.2.1]heptan-1-yl)butanoic acid], the EC50 was 1880 nM.
